Data taken from patent publication US20020054861A1, “Method of preparing particularly skin-compatible cosmetic or dematological cleansing preparations” (priority 1999, published 2002).

Test system: skin (inner sides of the forearms)
Assay: Adsorption of lauryl ether sulfate on the skin in a simulated washing operation (forearm, desorption with Triton X-100, ion-pair chromatography)
Type: in vivo, human
Protocol: The method which we have developed for determining the adsorption of lauryl ether sulfate on the skin simulates a washing operation as occurs, for example, during daily showering: Firstly, the inner sides of the forearms are divided into a number of test areas using insulating tape. The area to be treated is then wetted with approximately 50 ml of mains wafer (T=38±1° C.). The lauryl ether sulfate is then applied. Throughout the application period of 45 s, the test subject distributes the lauryl ether sulfate over the area using 2 fingers in uniform circular movements. At the end of the application period, the test area is rinsed with approximately 950 ml of mains water (T=38±1° C.) and carefully patted dry using a clean cellulose cloth. For the desorption, a plastic ring with an internal diameter of 25 mm is pressed firmly onto the inner side of the test subject's forearm. 1000 μl of a 1% Triton X-100 solution are then introduced into the ring. The tip of a round Teflon-coated spatula is then used to scrape the skin uniformly for 1 min. This leads to suspension of corneocytes. To work up the samples for analysis, the samples are centrifuged and 800 μl of the supernatant are drawn off. The supernatant is analyzed with regard to its lauryl ether sulfate content using ion-pair chromatography. The effectiveness of the desorption method described is 79%, i.e. 79% of the amount of lauryl ether sulfate actually present on the skin are included.

[1] = cosurfactant concentration 3%, added to a lauryl ether sulfate solution

Compound: CCCCCCCCCCO[C@@H]1O[C@H](CO)[C@@H](O)[C@H](O)[C@H]1O [Decyl glucoside]
- Effect on the adsorbed amount of lauryl ether sulfate (reduction) (cosurfactant concentration 5%, added to a lauryl ether sulfate solution): Reduction by 29%

Compound: CCCCCCCCCCCC(=O)O [Lauric acid]
- Effect on the adsorbed amount of lauryl ether sulfate (reduction) (cosurfactant concentration 1%, pH9, added to a lauryl ether sulfate solution): Reduction by 15%

Compound: cocamidopropylbetaine
- Effect on the adsorbed amount of lauryl ether sulfate (reduction) [1]: Reduction by 31%

Compound: disodium laureth sulfosuccinate
- Effect on the adsorbed amount of lauryl ether sulfate (reduction) [1]: Reduction by 28%

Compound: sodium cocoamphoacetate
- Effect on the adsorbed amount of lauryl ether sulfate (reduction) [1]: Reduction by 27%
